This note sets out measurements from ChEMBL document CHEMBL1133707, “Heteroarylmethoxyphenylalkoxyiminoalkylcarboxylic acids as leukotriene biosynthesis inhibitors” (J Med Chem, 2000).

The target in data set [1] is T1, Polyunsaturated fatty acid 5-lipoxygenase (Homo sapiens) (UniProt P09917).
T1 sequence (whole entry): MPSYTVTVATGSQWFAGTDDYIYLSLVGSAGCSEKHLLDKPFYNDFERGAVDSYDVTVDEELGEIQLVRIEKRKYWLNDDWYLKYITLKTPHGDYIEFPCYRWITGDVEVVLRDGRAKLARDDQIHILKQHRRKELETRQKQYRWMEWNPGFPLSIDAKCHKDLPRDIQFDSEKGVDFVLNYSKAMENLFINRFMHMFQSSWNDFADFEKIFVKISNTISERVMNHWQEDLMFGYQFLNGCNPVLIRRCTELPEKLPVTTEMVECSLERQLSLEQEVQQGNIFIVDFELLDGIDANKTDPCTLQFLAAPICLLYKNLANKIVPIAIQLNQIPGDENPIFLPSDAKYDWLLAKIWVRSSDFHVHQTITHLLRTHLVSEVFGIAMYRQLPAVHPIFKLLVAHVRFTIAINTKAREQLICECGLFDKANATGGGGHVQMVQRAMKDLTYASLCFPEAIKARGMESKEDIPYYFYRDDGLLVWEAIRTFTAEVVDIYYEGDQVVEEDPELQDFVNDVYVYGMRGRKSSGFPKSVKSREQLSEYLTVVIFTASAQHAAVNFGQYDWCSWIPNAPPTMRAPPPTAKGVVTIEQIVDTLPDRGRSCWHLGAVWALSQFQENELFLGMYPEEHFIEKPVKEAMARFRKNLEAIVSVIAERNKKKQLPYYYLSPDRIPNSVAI
Kind of data set: Inhibition of Calcium Ionophore (A-23187)-stimulated LTB4 formation in Human Neutrophil assay at 100 uM. The class given is functional.

In data set [2] the test system is Rattus norvegicus. Nature of the data set: Percent inhibition was determined for in vivo ionophore induced rat pleurisy at a dose of 3 mg/kg. It is filed as functional.
Data set [3] concerns Rattus norvegicus. Kind of data set: Effective dose was determined for in vivo ionophore induced rat pleurisy. The class given is functional.
Data set [4] can be described thus: half life was determined in plasma of rat. It is filed as ADME, organism-based.
Data set [5] in a line: half life was determined in plasma of dog. It is filed as ADME, organism-based, Canis lupus familiaris.
Data set [6] in a line: half life was determined in plasma of monkey. It is filed as ADME. Conditions: simiiformes.
For data set [7], the species on record is Homo sapiens. Nature of the data set: Inhibition of Calcium Ionophore (A-23187)-stimulated LTB4 formation in Human whole blood assay. It is filed as functional.
In data set [8] the test system is Rattus norvegicus. Nature of the data set: In vivo inhibition of ionophore induced rat pleurisy. It is filed as functional.
Data set [9] concerns Rattus norvegicus. Kind of data set: Effective dose was determined in in vivo which inhibits 50% of the mean value in rat anaphylaxis. It is filed as functional.
The subject of data set [10] is Rattus norvegicus. Kind of data set: Percent inhibition was determined for in vivo ionophore induced rat pleurisy at a dose of 10 mg/kg.
Data set [11] deals with Rattus norvegicus. Kind of data set: Percent inhibition was determined for in vivo ionophore induced rat pleurisy at a dose of 0.3 mg/kg.
For data set [12], the species on record is Homo sapiens. Kind of data set: Inhibition of Calcium Ionophore (A-23187)-stimulated LTB4 formation in Human whole blood assay at a concentration of 12.5 nM. It is filed as functional.
Data set [13] has as its target T1, Polyunsaturated fatty acid 5-lipoxygenase (Homo sapiens). Nature of the data set: Inhibition of Calcium Ionophore (A-23187)-stimulated LTB4 formation in Human Neutrophil assay at 100 nM.

Regarding `CCCCC(O/N=C(\C)C(=O)O)c1ccc(OCc2ccc3ccccc3n2)cc1` (stereo not drawn), the inhibition in data set [1] was found to be 45%.

As for `C/C(=N\OC(c1ccc(OCc2nc(-c3ccc(C(C)C)cc3)cs2)cc1)C1CCCCC1)C(=O)O` (stereo not drawn), in data set [1], the inhibition came to 57%. The compound also came in with an I in data set [2] of 17%.

Consider `CCCCCCCC(O/N=C(\C)C(=O)O)c1ccc(OCc2ccc3ccccc3n2)cc1` (stereo not drawn), for which, in data set [1], the inhibition amounted to 96%.

Take `CC(C)(C)SC/C(=N\OC(c1ccc(OCc2ccc3ccccc3n2)cc1)C1CCCCC1)C(=O)O` (stereo not drawn): the I in data set [3] was 47%.

In data set [3], `C/C(=N\OC(c1ccc(OCc2ccc3ccccc3n2)cc1Cl)C1CCCCC1)C(=O)O` (stereo not drawn) registered a 50% effective dose (ED50) of 0.8 mg/kg.

For `C/C(=N\O[C@H](c1ccc(OCc2ccc3ccccc3n2)cc1)C1CCCCC1)C(=O)[O-].[Na+]`, the half-life in data set [4] was 10.3 h; in data set [5] it was 5.6 h; in data set [6], 1.6 h. Besides, in data set [7] (Homo sapiens, Blood), the IC50 amounted to 0.72 µM. Moreover, the ED50 in data set [8] is 0.14 mg/kg; in data set [9] it was 0.13 mg/kg.

As to `CCCCCCCCC(O/N=C(\C)C(=O)O)c1ccc(OCc2ccc3ccccc3n2)cc1` (stereo not drawn), in data set [1], the inhibition was 92%. In addition, the I in [2] is reported as 27%.

Compound `O=C(O)/C=N/OCC(c1ccc(OCc2ccc3ccccc3n2)cc1)C1CCCCC1` (stereo not drawn) gave an I in data set [10] of 73%.

Regarding `C/C(=N\OC(c1ccc(OCc2ccc3ccccc3n2)cc1)C1CCCCC1)C(=O)[O-].[Na+]` (stereo not drawn), the Inhibition in [7] turned out to be 72%. In addition, the I in data set [11] is recorded as 74%.

`COc1ccc(C(O/N=C(\C)C(=O)O)c2ccc(OCc3ccc4ccccc4n3)cc2)cc1` (stereo not drawn): the inhibition in data set [1] is 58%. Besides, the I in data set [2] amounted to 20%.

Consider `COc1cc(OCc2ccc3ccccc3n2)ccc1C(O/N=C(\C)C(=O)O)C1CCCCC1` (stereo not drawn), for which the inhibition in data set [1] was determined as 98%. Further, in data set [2], the I is 32%.

With `C/C(=N\O[C@@H](c1ccc(OCc2ccc3ccccc3n2)cc1)C1CCCCC1)C(=O)O`, the half-life in [5] is 4.5 h; in data set [6], 3.8 h. The Inhibition in data set [7] (Homo sapiens, Blood) turned out to be 63%. Also, the I in [2] was found to be 29%.

Consider `C/C(=N\OC(c1ccc(OCc2cc(-c3ccccc3)on2)cc1)C1CCCCC1)C(=O)O` (stereo not drawn), for which the inhibition in [1] came to 61%. Further, in data set [2], the I was determined as 0%.

On to `CC(=NOC(c1ccc(OCc2ccc3ccccc3n2)cc1)C1CCCCC1)C(=O)O` (stereo not drawn), for which the half-life was 1 h in data set [4], 2 h in data set [5] and 5.4 h in data set [6]. For the same compound, the IC50 in data set [7] (Homo sapiens, Blood) came to 2.1 µM. The compound further displayed an ED50 in data set [9] of 1.2 mg/kg. The same compound showed an I in data set [2] of 89%.

As for `O=C(O)/C=C/c1ccc(/C=N/OC(c2ccc(OCc3ccc4ccccc4n3)cc2)C2CCCCC2)cc1` (stereo not drawn), the inhibition in [1] was 48%. The compound further showed an I in data set [2] of 0%.

Turning to `C/C(=N\OC(c1ccc(OCc2ccc3ccccc3n2)cc1)C1CCCCC1)C(=O)O` (stereo not drawn) [listing 1 of 2 here], the half-life was 5.6 h in data set [5] and 1.5 h in [6]. The IC50 in data set [7] was 1.8 µM. Besides, the ED50 in [8] was found to be 0.5 mg/kg; in [9] it was 1.2 mg/kg.

As to `C/C(=N\OC(c1ccc(OCc2ccc3ccccc3n2)cc1)C1CCCCC1)C(=O)O` (stereo not drawn) [listing 2 of 2 here], in data set [1], the inhibition was found to be 95%.

Regarding `CCCCCCCC(O/N=C/C(=O)O)c1ccc(OCc2ccc3ccccc3n2)cc1` (stereo not drawn), in [1], the inhibition turned out to be 100%. The compound further registered an I in [2] of 0%.

As to `CCCCCCCCCCCCC(O/N=C/C(=O)O)c1ccc(OCc2ccc3ccccc3n2)cc1` (stereo not drawn), the inhibition in [1] turned out to be 54%.

`C/C(=N\OC(c1ccc(OCc2ccc3ccccc3n2)cc1)c1cccnc1)C(=O)O` (stereo not drawn): the inhibition in data set [1] stood at 20%.

Consider `O=C(O)c1ccc(O)c(/C=N/OC(c2ccc(OCc3ccc4ccccc4n3)cc2)C2CCCCC2)c1` (stereo not drawn), for which the inhibition in [1] came out at 95%. The compound also yielded an I in [2] of 35%.

For the compound `CC(C)(CC(O/N=C/C(=O)O)c1ccc(OCc2ccc3ccccc3n2)cc1)c1ccccc1` (stereo not drawn), the ED50 in [3] is 4 mg/kg.

Consider `O=C(O)/C=N/OC(c1nc(OCc2ccc3ccccc3n2)c(-c2ccccc2)s1)C1CCCCC1` (stereo not drawn), for which the inhibition in data set [1] was determined as 2%.

Regarding `C/C(=N/OC(c1ccc(OCc2ccc3ccccc3n2)cc1)C1CCCCC1)C(=O)O` (stereo not drawn), in data set [12], the Inhibition was determined as 59%.

In the case of `C/C(CC(=O)O)=N\OC(c1ccc(OCc2ccc3ccccc3n2)cc1)C1CCCCC1` (stereo not drawn), the I in data set [2] turned out to be 68%. Also, the inhibition in data set [13] came out at 40%.

As for `O=C(O)/C=N/OC(c1ccc(OCc2ccc3ccccc3n2)c(F)c1)C1CCCCC1` (stereo not drawn), in data set [1], the inhibition worked out at 97%.

In the case of `C/C(=N\O[C@H](c1ccc(OCc2ccc3ccccc3n2)cc1)C1CCCCC1)C(=O)O`, the figures for the half-life in [4], in [5] and in data set [6] were 11.8 h, 4.6 h and 4 h, respectively. Also, the IC50 in data set [7] turned out to be 0.84 µM. The compound further showed an I in data set [11] of 43%.

For the compound `C/C(=N/OC(CCc1ccc(OCc2ccc3ccccc3n2)cc1)C1CCCCC1)C(=O)O` (stereo not drawn), the inhibition in data set [1] was determined as 51%. Moreover, the I in [2] is listed as 6%.

As for `O=C(O)/C=N/OC(c1ccc(-c2ccc(OCc3ccc4ccccc4n3)cc2)cc1)C1CCCCC1` (stereo not drawn), the inhibition in data set [1] was 55%. The I in data set [2] is reported as 10%.

In the case of `C/C(=N\OC(c1ccc(OCc2cccc(Cl)n2)cc1)C1CCCCC1)C(=O)O` (stereo not drawn), the inhibition in data set [1] is 7%.
